Where a SMILES comes first, the peptide text is derived from it. Bridges are numbered along the chain shown (N, C = ends). [ ]: non-standard residue; d: D form. 2Nal = N[C@@H](Cc1ccc2ccccc2c1)C(=O)O; Cit = NC(=O)NCCC[C@H](N)C(=O)O
Legend:
MT4 [1] = test: Compound was tested for reduction of the viability of mock infected MT-4 cell in test-I; format: functional; conditions: Homo sapiens
[2] = Ratio of cytotoxic concentration (CC50) in test-I to that of EC50 of compound; Not tested; format: functional
[3] = Ratio of cytotoxic concentration (CC50) in test-II to that of EC50 of compound; format: functional, Homo sapiens
[4] = Ratio of cytotoxic concentration (CC50) in test-I to that of EC50 of compound; format: functional, Homo sapiens
MT4 [5] = test: Compound was tested for reduction of the viability of mock infected MT-4 cell in test-II; format: functional; conditions: Homo sapiens
[6] = tested on: Human immunodeficiency virus 1; test: Inhibition of HIV-induced cytopathogenicity in MT-4 cell (ZIDOVUDINE control); format: functional, organism-based; conditions: Human immunodeficiency virus 1, MT4

For `C[C@@H]1NC(=O)[C@H](Cc2ccc(O)cc2)NC(=O)[C@@H](NC(=O)[C@H](Cc2ccc3ccccc3c2)NC(=O)[C@H](CCCN=C(N)N)NC(=O)[C@@H](N)CCCN=C(N)N)CSSC[C@@H](C(=O)N[C@@H](CCCN=C(N)N)C(=O)O)NC(=O)[C@H](CCCNC(N)=O)NC(=O)[C@H](CCCN=C(N)N)NC(=O)[C@H](Cc2ccc(O)cc2)NC(=O)[C@@H]2CCCN2C(=O)[C@@H](CCCCN)NC(=O)[C@H](CCCCN)NC1=O`, the CC50 (MT4 [1]) was > 40 µM and the Ratio [2] was >4500.
In the case of `NCCCC[C@@H]1NC(=O)[C@H](CCCN=C(N)N)NC(=O)[C@H](Cc2ccc(O)cc2)NC(=O)[C@@H](NC(=O)[C@H](Cc2ccc3ccccc3c2)NC(=O)[C@H](CCCN=C(N)N)NC(=O)[C@@H](N)CCCN=C(N)N)CSSC[C@@H](C(=O)N[C@@H](CCCN=C(N)N)C(=O)O)NC(=O)[C@H](CCCNC(N)=O)NC(=O)[C@H](CCCN=C(N)N)NC(=O)[C@H](Cc2ccc(O)cc2)NC(=O)[C@@H]2CCCN2C(=O)[C@@H](CCCCN)NC1=O` (H-RR[2Nal]CYRK[dK]PYR[Cit]CR-OH; disulfide 4-13), the Ratio [3] is reported as 29000, the Ratio [4] is reported as >>300 and the CC50 (MT4 [1]) is reported as > 1 µM. For the same molecule, the CC50 (MT4 [5]) was 96 µM.
With `Cc1cn([C@H]2C[C@H](N=[N+]=[N-])[C@@H](CO)O2)c(=O)[nH]c1=O` [ZIDOVUDINE] the Ratio [3] was <410, the Ratio [4] was 4000 and the CC50 (MT4 [1]) was 190 µM. The CC50 (MT4 [5]) was < 20 µM and the EC50 [6] was 0.048 µM.

From ChEMBL document CHEMBL1132828, “Pharmacophore identification of a specific CXCR4 inhibitor, T140, leads to development of effective anti-HIV agents with very high selectivity indexes” (Bioorg Med Chem Lett, 2000)
